This is an account of results in patent US20240292837A1, “CHROMONE DERIVATIVES AS ATTRACTANTS AND REPELLENTS OF BLOOD-SUCKING, BITING INVERTEBRATES” (CENTRE NATIONAL DE LA RECHERCHE SCIENTIFIQUE, priority 2021, published 2024).

For test [1], the system named is Aedes albopictus. The test is described as follows: Evaluation of the repellent and/or attractant effect in a tunnel olfactometer. In kind it is in vivo. Particulars: for Control (±SD), mean number of mosquitoes in the control zone / Treated (±SD), mean number of mosquitoes in the treated zone / Treated/Product (±SD), mean number of mosquitoes in the treated zone: 15 females; for repellent or attractant effect (in words): over the doses tested. An excerpt: The tunnel olfactometer is a 1 m long glass parallelepiped with a 5×5 cm side. The tube is equipped with 3 openings: two on each side, one for feeding in the paper impregnated with the product to be tested, and the other for the paper containing a control. The opening in the middle is for feeding in mosquitoes. Both ends of the tube are closed by covers.
The olfactometer is divided into three compartments or zones: • a neutral zone in the middle; • a test or treated area which is on the side of depositing the product; and • a control area which is located on the side of depositing the control.
For each test, 15 Aedes albopictus females (aged 5 to 12 days) are fed into the neutral zone of the tunnel olfactometer. Mosquitoes are kept for 10 minutes for a time of adaptation. Papers impregnated and dried with a solution of product in ethanol and pure ethanol as a reference are fed in, then the barriers are opened to allow mosquitoes to circulate freely inside the tube. Three test repetitions were carried out for each product. A repetition lasts 20 minutes and the results observed were recorded every 5 minutes.
The values measured are the activity index and the repulsion index. The activity index (Al) describes the percentage of mosquitoes in the control zone (T) and in the treated zone (P) with respect to the total number of mosquitoes tested. Said value should be greater than 30% for the test to be considered significant.
The repulsion index (RI) represents the percentage of the difference in the number of mosquitoes in the control part and in the treated part divided by the sum of the two values. A negative value of the parameter (RI) indicates an attractant activity (kairomone index. KI) of the product tested.
[formula] • Al: Activity index • RI: Repulsion index • T: Number of mosquitoes in the control area • P: Number of mosquitoes in the treated area

The test system of test [2] is Aedes albopictus. Put plainly: Evaluation of the combination 4-hydroxycoumarin / 7-nonyloxychromone (KI vs amount deposited, FIG. 1). Type of test: in vivo. An excerpt:
Said figure represents the IK (in %) as a function of the amount deposited (in mg).
It is possible to combine a chromone compound with other compounds of different structure.

Setting [3] is: dose 5 mg/ml, negative = attractant.
Setting [4] is: dose 10 mg/ml, negative = attractant.
[5] abbreviates: dose 30 mg/ml, negative = attractant.

For the compound `CCCCCCCC(C)Oc1ccc2c(=O)ccoc2c1` (racemic) [7-sec-nonyloxychromone], the “Repulsion index 5 mg deposition” value in the test with Aedes albopictus [1] (5 mg deposition, negative = attractant) is on record as −65.8%. In the test with Aedes albopictus [1] (10 mg deposition, negative = attractant), the “Repulsion index 10 mg deposition” value is −63.7%. Further, the “Repulsion index 30 mg deposition” value with Aedes albopictus [1] (30 mg deposition, negative = attractant) is recorded as −27.1%. The “AI (%) activity index” value with Aedes albopictus [1] (dose 0.1 mg/ml) stood at 91.1%; with Aedes albopictus [1] (dose 2 mg/ml) it was 91.1%; in the test with Aedes albopictus [1] (dose 5 mg/ml) it was 83.9%; in the test with Aedes albopictus [1] (dose 10 mg/ml) it was 91.7%; with Aedes albopictus [1] (dose 30 mg/ml) it was 88.3%. In addition, the “Control (±SD), mean number of mosquitoes in the control zone” value in the test with Aedes albopictus [1] (dose 0.1 mg/ml in treated zone) is on record as 2.5 ± 0.2; with Aedes albopictus [1] (dose 2 mg/ml in treated zone), 1.4 ± 0.4; in the test on Aedes albopictus [1] (dose 5 mg/ml in treated zone), 2.2 ± 0.3; in the test on Aedes albopictus [1] (dose 10 mg/ml in treated zone) it was 2.5 ± 0.5; with Aedes albopictus [1] (dose 30 mg/ml in treated zone), 4.8 ± 0.4. Moreover, the “Treated (±SD), mean number of mosquitoes in the treated zone” value in the test on Aedes albopictus [1] (dose 0.1 mg/ml) turned out to be 11.2 ± 0.6; in the test on Aedes albopictus [1] (dose 2 mg/ml), 12.3 ± 0.0. Also, the “KI (%) kairomone index” value is given as −63.5% in the test on Aedes albopictus [1] (dose 0.1 mg/ml, negative = attractant); −79.8% in the test on Aedes albopictus [1] (dose 2 mg/ml, negative = attractant); −65.8% in the test on Aedes albopictus [1] (setting [3]); −63.6% with Aedes albopictus [1] (setting [4]); −27.1% with Aedes albopictus [1] (setting [5]). Besides, the “Treated/Product (±SD), mean number of mosquitoes in the treated zone” value worked out at 10.4 ± 0.1 in the test on Aedes albopictus [1] (dose 5 mg/ml), 11.3 ± 0.0 in the test with Aedes albopictus [1] (dose 10 mg/ml) and 8.4 ± 0.2 with Aedes albopictus [1] (dose 30 mg/ml). In the test on Aedes albopictus [1] (dose of 2 mg/ml, given as magnitude), the “maximum value of KI” value is about 80%. Besides, the “repellent or attractant effect (in words)” value in the test with Aedes albopictus [1] is given as “stays attractant”. Moreover, the “attractant activity (KI)” value in the test with Aedes albopictus [1] (up to 10 mg/ml, given as magnitude) is recorded as “above 65%”. Besides, the “change of attractant effect with dose (in words)” value in the test with Aedes albopictus [2] (from the 10 mg dose onwards) is reported as “significant decrease”.
Regarding `O=c1cc(O)c2ccccc2o1` [4-hydroxycoumarin], the increase in attraction with Aedes albopictus [2] (higher doses (10 and 30 mg) vs low doses) came out at 10%. For the same compound, in the test on Aedes albopictus [2] (low dose (or quantity)), the “kairomone index KI” value is reported as about 40%.
As to R-(−)-sec-pentoxychromone, the “AI (%) activity index” value amounted to 92.2% in the test with Aedes albopictus [1] (dose 1 mg/ml), 86.7% in the test with Aedes albopictus [1] (dose 5 mg/ml), 81.1% in the test with Aedes albopictus [1] (dose 10 mg/ml) and 90% in the test on Aedes albopictus [1] (dose 30 mg/ml). In addition, the “Control (±SD), mean number of mosquitoes in the control zone” value is on record as 5.3 ± 0.3 in the test with Aedes albopictus [1] (dose 1 mg/ml in treated zone), 2.2 ± 0.4 with Aedes albopictus [1] (dose 5 mg/ml in treated zone), 3.6 ± 0.4 in the test on Aedes albopictus [1] (dose 10 mg/ml in treated zone) and 6.6 ± 0.4 in the test on Aedes albopictus [1] (dose 30 mg/ml in treated zone). The “Treated (±SD), mean number of mosquitoes in the treated zone” value with Aedes albopictus [1] (dose 1 mg/ml) is recorded as 8.6 ± 0.2. In addition, the “KI (%) kairomone index” value at Aedes albopictus [1] (dose 1 mg/ml, negative = attractant) is −24.3%; at Aedes albopictus [1] (setting [3]), −66.6%; at Aedes albopictus [1] (setting [4]), −47.1%; on Aedes albopictus [1] (setting [5]), −2.8%. Besides, the “Treated/Product (±SD), mean number of mosquitoes in the treated zone” value stood at 10.8 ± 0.6 in the test on Aedes albopictus [1] (dose 5 mg/ml), 8.6 ± 0.1 with Aedes albopictus [1] (dose 10 mg/ml) and 6.9 ± 0.3 with Aedes albopictus [1] (dose 30 mg/ml). Besides, the “repellent or attractant effect (in words)” value in the test with Aedes albopictus [1] is listed as “attractant”.
